According to patent US10821100B2, “Triazolone compounds as mPGES-1 inhibitors” (Glenmark Pharmaceuticals S.A., priority 2012, dated 2020):

Target: T1, Recombinant human mPGES-1 (Homo sapiens, UniProt O14684)
T1 construct: made in house; host or cells: CHO cells (crude microsomal fractions)
T1 sequence (O14684 1-152): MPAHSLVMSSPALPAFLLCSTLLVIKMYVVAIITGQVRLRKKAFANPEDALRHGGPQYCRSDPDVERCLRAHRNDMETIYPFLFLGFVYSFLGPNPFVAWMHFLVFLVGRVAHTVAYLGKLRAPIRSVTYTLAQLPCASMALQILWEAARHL
Assay: In-vitro screening of mPGES-1 inhibitors (inhibition of PGE2 formation from PGH2, HTRF detection)
Format: biochemical
Conditions: mPGES-1 enzyme; for inhibition at 1 µM: 1 μM test compound, read-out: Percentage inhibition at 1 μM; for inhibition at 10 µM: 10 μM test compound, read-out: Percentage inhibition at 10 μM; for IC50: class symbols
Excerpt: In-Vitro Protocol for Screening of mPGES-1 Inhibitors: mPGES-1 (Microsomal prostaglandin E synthase-1) is a microsomal enzyme that converts endoperoxide substrate PGH2 (prostaglandin H2) to product PGE2 (prostaglandin E2) by isomerization in the presence of reduced glutathione (GSH). mPGES-1 inhibitors were screened by assessing their ability to inhibit formation of PGE2 from PGH2 in the presence of mPGES-1 using an anti-PGE2 antibody based detection method. Recombinant human mPGES-1 was generated in-house by expression in CHO cells (Ouellet M et al. (2002), Protein Expression and Purification 26: 489-495). The assay was set up using crude microsomal fractions at a protein concentration of 40-60 μg/mL. Test compounds were prepared in 100% dimethyl sulfoxide (DMSO) to obtain 20 mM stock solution and then diluted using assay buffer comprising 0.1 M Potassium phosphate buffer with 2 mM EDTA. The final concentration of DMSO in the reaction was 0.5% (v/v). Negative controls were comprised of all assay reagents except the enzyme. Positive controls were comprised of the enzyme reaction in the absence of any inhibitor. Test compounds were incubated for 10 minutes in assay buffer containing 2.5 mM GSH and mPGES-1 enzyme followed by addition of PGH2 at a concentration of 15 μM for 1 minute. The reaction was stopped by addition of Stannous chloride (11 mg/ml) and PGE2 levels were measured ([…] et al. (2005), Journal of Biomolecular Screening 10(6) 599-605; Goedken R E et al. (2008), Journal of Biomolecular Screening 13 (7): 619-625) by HTRF kit (CisBio)). Inhibition of mPGES-1 enzyme activity was measured using the percent of reaction occurring in the positive control. Concentration response curves were plotted using percent inhibition of maximum enzyme reaction. The IC50 value was calculated from the concentration response curve by nonlinear regression analysis using GraphPad PRISM software.

Row | SMILES | inhibition at 1 µM (crude microsomal fractions) | inhibition at 10 µM (crude microsomal fractions) | IC50 | inhibition at 3 µM (3 μM test compound, crude microsomal fractions, read-out: Percentage inhibition at 3 μM)
1 | Cc1ccc(NC(=O)c2ccc(-n3nc(-c4c(F)cccc4Cl)[nH]c3=O)cc2)c(F)c1 [Example-35, 4-(3-(2-Chloro-6-fluorophenyl)-5-oxo-4,5-dihydro-1H-1,2,4-triazol-1-yl)-N-(2-fluoro-4-methylphenyl)benzamide] | 37.4% | 59.1% | – | –
2 | Cc1ccc(Cl)cc1NC(=O)c1ccc(-n2nc(-c3c(F)cccc3Cl)[nH]c2=O)cc1 [Example-37, N-(5-Chloro-2-methylphenyl)-4-(3-(2-chloro-6-fluorophenyl)-5-oxo-4,5-dihydro-1H-1,2,4-triazol-1-yl)benzamide] | 51% | 94.3% | – | –
3 | COc1cc(-n2nc(-c3c(F)cccc3Cl)[nH]c2=O)ccc1C(=O)Nc1cc(Cl)ccc1C [Example-38, N-(5-Chloro-2-methylphenyl)-4-(3-(2-chloro-6-fluorophenyl)-5-oxo-4,5-dihydro-1H-1,2,4-triazol-1-yl)-2-methoxybenzamide] | 87.4% | 84.9% | 50 to 100 nM | –
4 | COc1cc(-n2nc(-c3c(F)cccc3Cl)[nH]c2=O)ccc1C(=O)Nc1ccc(C)cc1F [Example-39, 4-(3-(2-Chloro-6-fluorophenyl)-5-oxo-4,5-dihydro-1H-1,2,4-triazol-1-yl)-N-(2-fluoro-4-methylphenyl)-2-methoxybenzamide] | 90.1% | 96.4% | 50 to 100 nM | –
5 | COc1cc(OC)cc(-c2noc(-c3ccc(-n4nc(-c5c(F)cccc5Cl)[nH]c4=O)cc3OC)n2)c1 [Example-41, 3-(2-Chloro-6-fluorophenyl)-1-(4-(3-(3,5-dimethoxyphenyl)-1,2,4-oxadiazol-5-yl)-3-methoxyphenyl)-1H-1,2,4-triazol-5(4H)-one] | 58.8% | 87.1% | – | –
6 | COc1cc(-n2nc(-c3c(F)cccc3Cl)[nH]c2=O)ccc1C(=O)Nc1nc2ccccc2[nH]1 [Example-46, N-(1H-Benzo[d]imidazol-2-yl)-4-(3-(2-chloro-6-fluorophenyl)-5-oxo-4,5-dihydro-1H-1,2,4-triazol-1-yl)-2-methoxybenzamide] | 59.8% | 72.1% | – | –
7 | COc1cc(-n2nc(-c3c(Cl)cccc3Cl)[nH]c2=O)ccc1-c1nc(C(C)C)no1 [Example-50, 3-(2,6-Dichlorophenyl)-1-(4-(3-isopropyl-1,2,4-oxadiazol-5-yl)-3-methoxyphenyl)-1H-1,2,4-triazol-5(4H)-one] | 95.3% | 99.8% | 50 to 100 nM | –
8 | COc1cc(-n2nc(-c3c(C)cccc3Cl)[nH]c2=O)ccc1C(=O)Nc1cccc(C(F)F)c1 [Example-54, 4-(3-(2-Chloro-6-methylphenyl)-5-oxo-4,5-dihydro-1H-1,2,4-triazol-1-yl)-N-(3-(difluoromethyl)phenyl)-2-methoxybenzamide] | 89.4% | 97.5% | 50 to 100 nM | –
9 | COc1cc(-n2nc(-c3c(C)cccc3Cl)[nH]c2=O)ccc1-c1nc(-c2ccc(Cl)cc2)no1 [Example-55, 3-(2-Chloro-6-methylphenyl)-1-(4-(3-(4-chlorophenyl)-1,2,4-oxadiazol-5-yl)-3-methoxyphenyl)-1H-1,2,4-triazol-5(4H)-one] | 81% | – | < 50 nM | 91.8%
10 | COc1cc(-n2nc(-c3c(C)cccc3Cl)[nH]c2=O)ccc1C(=O)Nc1cccc(C(F)(F)F)c1 [Example-56, 4-(3-(2-Chloro-6-methylphenyl)-5-oxo-4,5-dihydro-1H-1,2,4-triazol-1-yl)-2-methoxy-N-(3-(trifluoromethyl)phenyl)benzamide] | 98.1% | 98.5% | < 50 nM | –

Continued, values first:

Row | inhibition at 1 µM (crude microsomal fractions) | inhibition at 10 µM (crude microsomal fractions) | IC50 | inhibition at 3 µM (3 μM test compound, crude microsomal fractions, read-out: Percentage inhibition at 3 μM) | SMILES
11 | 97.3% | 98.9% | < 50 nM | – | COc1cc(-n2nc(-c3c(F)cccc3Cl)[nH]c2=O)ccc1C(=O)Nc1cc(C(F)(F)F)ccc1F [Example-36, 4-(3-(2-Chloro-6-fluorophenyl)-5-oxo-4,5-dihydro-1H-1,2,4-triazol-1-yl)-N-(2-fluoro-5-(trifluoromethyl)phenyl)-2-methoxybenzamide]
12 | 89% | 90.7% | < 50 nM | – | COc1cc(-n2nc(-c3c(F)cccc3Cl)[nH]c2=O)ccc1-c1nc(-c2ccc(Cl)cc2)no1 [Example-40, 3-(2-Chloro-6-fluorophenyl)-1-(4-(3-(4-chlorophenyl)-1,2,4-oxadiazol-5-yl)-3-methoxyphenyl)-1H-1,2,4-triazol-5(4H)-one]
13 | 96.5% | 99.7% | < 50 nM | – | COc1cc(-n2nc(-c3c(Cl)cccc3Cl)[nH]c2=O)ccc1C(=O)Nc1cccc(C(F)(F)F)c1 [Example-42, 4-(3-(2,6-Dichlorophenyl)-5-oxo-4,5-dihydro-1H-1,2,4-triazol-1-yl)-2-methoxy-N-(3-(trifluoromethyl)phenyl)benzamide]
14 | 98.6% | 99% | < 50 nM | – | COc1cc(-n2nc(-c3c(Cl)cccc3Cl)[nH]c2=O)ccc1C(=O)Nc1ccc(F)c(C(F)(F)F)c1 [Example-43, 4-(3-(2,6-Dichlorophenyl)-5-oxo-4,5-dihydro-1H-1,2,4-triazol-1-yl)-N-(4-fluoro-3-(trifluoromethyl)phenyl)-2-methoxybenzamide]
15 | 97.4% | 99% | < 50 nM | – | COc1cc(-n2nc(-c3c(Cl)cccc3Cl)[nH]c2=O)ccc1C(=O)Nc1cc(C(F)(F)F)ccc1F [Example-44, 4-(3-(2,6-Dichlorophenyl)-5-oxo-4,5-dihydro-1H-1,2,4-triazol-1-yl)-N-(2-fluoro-5-(trifluoromethyl)phenyl)-2-methoxybenzamide]
16 | 81.7% | 90.1% | < 50 nM | – | COc1cc(-n2nc(-c3c(F)cccc3Cl)[nH]c2=O)ccc1C(=O)Nc1nc2ccc(F)cc2s1 [Example-45, 4-(3-(2-Chloro-6-fluorophenyl)-5-oxo-4,5-dihydro-1H-1,2,4-triazol-1-yl)-N-(6-fluorobenzo[d]thiazol-2-yl)-2-methoxybenzamide]
17 | 89.5% | 96.5% | < 50 nM | – | COc1cc(-n2nc(-c3c(F)cccc3Cl)[nH]c2=O)ccc1-c1nc(-c2cc(F)cc(C(F)(F)F)c2)no1 [Example-47, 3-(2-Chloro-6-fluorophenyl)-1-(4-(3-(3-fluoro-5-(trifluoromethyl)phenyl)-1,2,4-oxadiazol-5-yl)-3-methoxyphenyl)-1H-1,2,4-triazol-5(4H)-one]
18 | 98.3% | 100% | < 50 nM | – | COc1cc(-n2nc(-c3c(F)cccc3Cl)[nH]c2=O)ccc1C(=O)Nc1nnc(C(F)(F)F)s1 [Example-48, 4-(3-(2-Chloro-6-fluorophenyl)-5-oxo-4,5-dihydro-1H-1,2,4-triazol-1-yl)-2-methoxy-N-(5-(trifluoromethyl)-1,3,4-thiadiazol-2-yl)benzamide]
19 | 89.2% | 96.3% | < 50 nM | – | COc1cc(-n2nc(-c3c(Cl)cccc3Cl)[nH]c2=O)ccc1-c1nc(-c2ccc(Cl)cc2)no1 [Example-49, 1-(4-(3-(4-Chlorophenyl)-1,2,4-oxadiazol-5-yl)-3-methoxyphenyl)-3-(2,6-dichlorophenyl)-1H-1,2,4-triazol-5(4H)-one]
20 | 88.3% | 86% | < 50 nM | – | O=c1[nH]c(-c2c(F)cccc2Cl)nn1-c1ccc(-c2nc(-c3ccc(Cl)cc3)no2)cc1 [Example-51, 3-(2-Chloro-6-fluorophenyl)-1-(4-(3-(4-chlorophenyl)-1,2,4-oxadiazol-5-yl)phenyl)-1H-1,2,4-triazol-5(4H)-one]
21 | 96.4% | 98.3% | < 50 nM | – | COc1cc(-n2nc(-c3cc(CNC(=O)C4CC4)ccc3Cl)[nH]c2=O)ccc1C(=O)Nc1cccc(C(F)(F)F)c1 [Example-52, 4-(3-(2-Chloro-5-(cyclopropanecarboxamidomethyl)phenyl)-5-oxo-4,5-dihydro-1H-1,2,4-triazol-1-yl)-2-methoxy-N-(3-(trifluoromethyl)phenyl)benzamide]
22 | 82.7% | 97.9% | < 50 nM | – | COc1cc(-n2nc(-c3c(C)cccc3Cl)[nH]c2=O)ccc1C(=O)Nc1ccc(F)c(C(F)F)c1 [Example-53, 4-(3-(2-Chloro-6-methylphenyl)-5-oxo-4,5-dihydro-1H-1,2,4-triazol-1-yl)-N-(3-(difluoromethyl)-4-fluorophenyl)-2-methoxybenzamide]
